How the values were obtained:
Format in all cases: cell-based, human
Huh7 cells [1] = experiment: Western blotting for cleaved PARP (apoptosis marker); settings: antagonist treatment alone
From the text: Arrows point to BrdU-positive cells, expressed as a percentage of total cells. Data represents mean±SEM, n=3-6, *p<0.05 vs. untreated. […] Data represents mean±SD, n=3, *p<0.05 vs. untreated, #p<0.05.
Applicants' observations that P2X3 agonist 2-MeSATP treatment alone was sufficient to induce cyclin D3 expression (1.9 fold) and pre-treatment with an alternative P2X3 antagonist (A317491) attenuated ATP induced cyclin D3 expression in Huh7 cells further validated the role of P2X3 purinergic receptor activation in the induction of cell-cycle progression in HCC cells (FIGS. 11C-D). Furthermore, P2X3 antagonist treatment alone was sufficient to reduce the baseline BrdU-positive cells and cyclin protein expression in serum-free conditions, implicating P2X3 activation as a necessary facilitator of Huh7 cell cycle progression (FIGS. 11A-B).
(§1) Total protein extracts were obtained by homogenizing cells in total lysis buffer (50 mM Tris-HCl, pH 7.5, 0.5 M NaCl, 2 mM EGTA, 2 mM EDTA, 1.0% Triton X-100, 0.25% Deoxycholate, 1 m/ml pepstatin, 1.0 m/ml leupeptin, 1.0 m/ml aprotinin, 1.0 mM phenylmethylsulfonyl fluoride, 1.0 mM Dithiothreitol, 2.0 mM activated Na3VO4, and 2.0 mM NaF) and centrifuging at 14,000 rpm for 10 min (4° C.). Equal amounts of total proteins as determined by BCA protein Assay (Pierce, Rockford, Ill.) were analyzed by Western blotting. […]

[2] = system: Huh7 cells overexpressing P2X3; experiment: BrdU incorporation in Huh7 cells transfected with P2X3 or pCMV6 vector
Procedure: Thereafter, these cells were treated with ATP+/-P2X3 antagonist, AF-353. […] Huh7 cells were maintained in MEM with 10% fetal bovine serum (FBS), 5% L-Glutamine and 5% Penicillin-streptomycin overnight. P2X3 or pCMV6 vector control plasmids (1 m) were transfected with Turbofectin 8.00 (Origene Technologies, Rockville, Md.) in MEM with 5% L-Glutamine. Media was […] hours, according to manufacturer's instructions. Formalin-fixed and paraffin embedded liver sections from HCC patients were analyzed by immunohistochemistry with anti-P2X3 antibody (Abcam, Cambridge, Mass.). HCC cells were grown on glass coverslips; BrdU (10 μM, Roche, Indianapolis, Ind.) was added to culture media for 1 h prior to fixation (cold acetone:methanol, 1:1) and stained using anti-BrdU antibody (DAKO, Carpinteria, Calif.) and DAB Peroxidase Substrate Kit (Vector Labs, Burlingame, Calif.), according to manufacturer's instructions. Counterstaining was done with hematoxylin. BrdU positive cells were counted and expressed as a percentage of the total number of cells in ten randomly selected high-power fields (20×) per coverslips.

SNU-387 cells = experiment: Western blotting of cyclin D3 in SNU-387 cells; settings: ATP 24 hours, serum-free
Procedure: (§2) HCC cells (Huh7, Hep3B, SNU-387, and PLC/PRF/5) maintained in serum-free conditions were treated with ATP for 24 hours and total protein extracts were analyzed by Western blotting for cyclin D3 expression. The α-tubulin was utilized as the protein loading control. Data represents mean±SD, n=3-6, *p<0.05 vs untreated (un).
(§3) Normal human primary hepatocytes isolated from healthy adults (no known history of HCC) in suspension or freshly-frozen prior to shipment (Cryoport Systems, CA) were purchased from Triangle Research Labs, NC. […]
as §1

PLC/PRF/5 cells = experiment: Western blotting of cyclin D3 in PLC/PRF/5 cells; settings: ATP 24 hours, serum-free
Procedure: as §2, §3, §1

Huh7 cells [3] = experiment: MTT assay of cell proliferation and viability, Huh7; settings: ATP 100 μM, 18 h
Procedure: Normal human primary hepatocytes isolated from healthy adults (no known history of HCC) in suspension or freshly-frozen prior to shipment (Cryoport Systems, CA) were purchased from Triangle Research Labs, NC. Fresh hepatocytes were plated on collagen-coated tissue culture plates or glass coverslips in Williams E complete media with additives (10% fetal bovine serum, 2 mM glutamine, […] insulin, 4 ng/ml glucagon, […] transferrin, 2.5 ng/ml sodium selenite, 10,000 U/ml penicillin, […] streptomycin, 50 g/ml gentamycin) for 3 h to ensure hepatocyte adherence to plates. Subsequently, hepatocytes were maintained in Williams E minimal media free from serum and growth factors for 24 h prior to treatment. Human hepatocellular carcinoma derived Huh7, and Hep3B, were cultured in Minimum Essential Medium Eagle (MEM); SNU-387 was cultured in Roswell Park Memorial Institute (RPMI) medium and PLC/PRF/5 cultured in Dulbecco's Modified Eagle's medium (DMEM). All maintenance culture media were supplemented with 10% fetal bovine serum (FBS), L-Glutamine (2 mM), penicillin (100 units/ml) and streptomycin ([…]) at 37° C. and 5% CO2. […]
Cell viability was determined using the 3-(4, 5-dimethylthiazol-2-yl)-2,5-diphenyltetrazolium (MTT, Sigma) assays. […] After shaking the plates for 30 min, the absorbance at 570 nm was measured (background subtraction at […]).

Huh7 cells [4] = experiment: qRT-PCR of YAP target genes in Huh7 cells; settings: 24 h treatment
From the text: Total RNA was isolated from human livers or cells and was amplified by qRT-PCR as described recently (Oncotarget 2015; 6:41162-41179). Next, Applicants tested whether extracellular nucleotide treatment may have an effect on YAP target genes important in hepatocellular carcinoma. […] Moreover, P2X3 antagonist (AF-353) pretreatment attenuated ATP mediated induction of survivin (FIG. 20G).

[5] = transfected Huh7, ATP 100 μM, 24 h

| Compound | cleaved PARP protein expression (marker of apoptosis) (Huh7 cells [1]) | effect on P2X3 mediated increase in proliferation (BrdU) ([2]; P2X3-overexpressing Huh7, AF-353 5 μM, 24 h) | effect on ATP mediated increase in BrdU incorporation ([2]; transfected Huh7, AF-353 5 μM pre-treatment, ATP 100 μM 24 h) | cyclin D3 protein expression (SNU-387 cells) [fold] | cyclin D3 protein expression (PLC/PRF/5 cells) [fold] | increase in cell proliferation and viability (MTT) (Huh7 cells [3]) [%] | ATP mediated proliferation in P2X3-overexpressing cells vs cells transfected with only pCMV6 [2, 5] | BrdU incorporation compared to the pCMV6 control [2, 5] | AREG gene expression (Huh7 cells [4]) [fold] | CTGF gene expression (Huh7 cells [4]) [fold] | Sox9 gene expression (Huh7 cells [4]) [fold] | cyclin E gene expression (Huh7 cells [4]) [fold] | survivin gene expression (Huh7 cells [4]) [fold] |
| --- | --- | --- | --- | --- | --- | --- | --- | --- | --- | --- | --- | --- | --- |
| COc1cc(C(C)C)c(Oc2cnc(N)nc2N)cc1I [AF-353] | increased | completely attenuated | significantly attenuated |  |  |  |  |  |  |  |  |  |  |
| Nc1ncnc2c1ncn2[C@@H]1O[C@H](COP(=O)(O)OP(=O)(O)OP(=O)(O)O)[C@@H](O)[C@H]1O [ATP] |  |  |  | 1.6 | 1.4 | 65 | significantly higher | further increased | 5.1 | 3.4 | 2.0 | 2.1 | 1.1 |
| Nc1ncnc2c1ncn2[C@@H]1O[C@H](COP(=O)(O)OP(=O)(O)OP(O)(O)=S)[C@@H](O)[C@H]1O [ATPγS] |  |  |  |  |  |  |  |  | 3.3 | 2.2 | 1.6 | 2.0 | 1.1 |
